# Target: ABCB1 (Homo sapiens, UniProt P08183)
# Sequence (P08183 whole entry): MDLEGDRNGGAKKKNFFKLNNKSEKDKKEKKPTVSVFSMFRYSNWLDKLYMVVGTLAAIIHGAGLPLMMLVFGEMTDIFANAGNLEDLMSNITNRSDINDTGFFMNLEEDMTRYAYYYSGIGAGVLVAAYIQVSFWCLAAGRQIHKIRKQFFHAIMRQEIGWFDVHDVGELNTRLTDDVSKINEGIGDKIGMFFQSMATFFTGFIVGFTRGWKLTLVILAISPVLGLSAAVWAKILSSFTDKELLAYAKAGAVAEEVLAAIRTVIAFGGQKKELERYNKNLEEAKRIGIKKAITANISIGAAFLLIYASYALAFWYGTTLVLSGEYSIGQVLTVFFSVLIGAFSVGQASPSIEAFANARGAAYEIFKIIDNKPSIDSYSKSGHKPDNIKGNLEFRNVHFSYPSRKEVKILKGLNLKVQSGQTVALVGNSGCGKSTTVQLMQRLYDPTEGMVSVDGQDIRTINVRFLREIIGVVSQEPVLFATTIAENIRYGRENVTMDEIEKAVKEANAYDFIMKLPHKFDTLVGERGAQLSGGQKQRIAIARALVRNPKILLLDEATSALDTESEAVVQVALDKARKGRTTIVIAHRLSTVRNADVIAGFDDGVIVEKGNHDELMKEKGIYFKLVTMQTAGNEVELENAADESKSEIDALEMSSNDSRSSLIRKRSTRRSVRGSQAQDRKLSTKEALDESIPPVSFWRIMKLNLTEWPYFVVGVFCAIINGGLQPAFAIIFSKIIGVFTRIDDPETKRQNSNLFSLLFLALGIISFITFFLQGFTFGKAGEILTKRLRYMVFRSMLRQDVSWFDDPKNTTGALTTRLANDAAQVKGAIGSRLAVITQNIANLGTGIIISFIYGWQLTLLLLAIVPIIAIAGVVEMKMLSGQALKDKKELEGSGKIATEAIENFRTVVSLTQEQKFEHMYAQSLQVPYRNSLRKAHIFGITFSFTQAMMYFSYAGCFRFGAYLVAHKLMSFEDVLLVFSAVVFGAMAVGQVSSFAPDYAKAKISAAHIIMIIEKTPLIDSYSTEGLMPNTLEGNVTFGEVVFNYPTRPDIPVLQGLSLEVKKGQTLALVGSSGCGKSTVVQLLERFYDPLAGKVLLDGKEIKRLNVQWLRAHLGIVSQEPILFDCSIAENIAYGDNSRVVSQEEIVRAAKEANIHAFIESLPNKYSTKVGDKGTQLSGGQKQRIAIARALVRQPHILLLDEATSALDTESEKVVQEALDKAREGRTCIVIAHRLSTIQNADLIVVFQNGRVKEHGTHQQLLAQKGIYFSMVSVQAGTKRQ
smiles,measurement,value
CC(=O)O[C@H]1C(=O)[C@@]2(C)[C@H]([C@H](OC(=O)c3ccccc3)[C@]3(O)C[C@H](OC(=O)[C@H](O)[C@@H](NC(=O)c4ccccc4)c4ccccc4)C(C)=C1C3(C)C)[C@]1(OC(C)=O)CO[C@@H]1C[C@@H]2O [paclitaxel],radiolabelled substrate efflux from ABCB1-overexpressing cells,selonsertib significantly decreased the efflux of [^3H]-paclitaxel in ABCB1-overexpressing cell lines KB-C2 and SW620/Ad300

# Source: PMC8132112 (Cancer letters, 2018)
